Reference: PubChem BioAssay AID1259407 (Chemical Carcinogenesis Research Information System (CCRIS), 2018)
The source made the active and inactive calls. The rule behind the calls is not given here.

System: CCRIS mutagenicity, Ames/micronucleus/aberration tests
Experiment: CCRIS mutagenicity studies
[1] = Test System: AMES SALMONELLA TYPHIMURIUM, Strain/Indicator: TA102, Metabolic Activation: NONE, Method: STANDARD PLATE
[2] = Test System: AMES SALMONELLA TYPHIMURIUM, Strain/Indicator: TA98, Metabolic Activation: NONE, Method: PREINCUBATION
[3] = Test System: AMES SALMONELLA TYPHIMURIUM, Strain/Indicator: TA100, Metabolic Activation: NONE, Method: PREINCUBATION

CCOC(C)C(=O)C(O)O (configuration not stated)
mutagenic call [1]: active; positive
mutagenic call (Test System: AMES SALMONELLA TYPHIMURIUM, Strain/Indicator: TA104, Metabolic Activation: NONE, Method: PREINCUBATION): active; positive
mutagenic call (Test System: AMES SALMONELLA TYPHIMURIUM, Strain/Indicator: TA2638A, Metabolic Activation: NONE, Method: STANDARD PLATE): active; positive

O=C1c2c(Br)c(Br)c(Br)c(Br)c2C(=O)N1CCN1C(=O)c2c(Br)c(Br)c(Br)c(Br)c2C1=O
mutagenic call (Test System: AMES SALMONELLA TYPHIMURIUM, Strain/Indicator: TA98, Metabolic Activation: HAMSTER, LIVER, S-9, AROCLOR 1254 (10%), Method: PREINCUBATION): inactive; negative
mutagenic call [2]: inactive; negative
mutagenic call (Test System: AMES SALMONELLA TYPHIMURIUM, Strain/Indicator: TA98, Metabolic Activation: RAT, LIVER, S-9, AROCLOR 1254 (10%), Method: PREINCUBATION): inactive; negative
mutagenic call (Test System: AMES SALMONELLA TYPHIMURIUM, Strain/Indicator: TA100, Metabolic Activation: HAMSTER, LIVER, S-9, AROCLOR 1254 (10%), Method: PREINCUBATION): inactive; negative
mutagenic call [3]: inactive; negative
mutagenic call (Test System: AMES SALMONELLA TYPHIMURIUM, Strain/Indicator: TA100, Metabolic Activation: RAT, LIVER, S-9, AROCLOR 1254 (10%), Method: PREINCUBATION): inactive; negative
mutagenic call (Test System: AMES SALMONELLA TYPHIMURIUM, Strain/Indicator: TA1535, Metabolic Activation: HAMSTER, LIVER, S-9, AROCLOR 1254 (10%), Method: PREINCUBATION): inactive; negative
mutagenic call (Test System: AMES SALMONELLA TYPHIMURIUM, Strain/Indicator: TA1535, Metabolic Activation: NONE, Method: PREINCUBATION): inactive; negative
mutagenic call (Test System: AMES SALMONELLA TYPHIMURIUM, Strain/Indicator: TA1535, Metabolic Activation: RAT, LIVER, S-9, AROCLOR 1254 (10%), Method: PREINCUBATION): inactive; negative
mutagenic call (Test System: AMES SALMONELLA TYPHIMURIUM, Strain/Indicator: TA1537, Metabolic Activation: HAMSTER, LIVER, S-9, AROCLOR 1254 (10%), Method: PREINCUBATION): inactive; negative
mutagenic call (Test System: AMES SALMONELLA TYPHIMURIUM, Strain/Indicator: TA1537, Metabolic Activation: NONE, Method: PREINCUBATION): inactive; negative
mutagenic call (Test System: AMES SALMONELLA TYPHIMURIUM, Strain/Indicator: TA1537, Metabolic Activation: RAT, LIVER, S-9, AROCLOR 1254 (10%), Method: PREINCUBATION): inactive; negative

COc1cc(/C=C/c2ccccc2)oc(=O)c1
mutagenic call (Test System: Mouse lymphoma cells, Strain/Indicator: L5178Y ( tk+/tk-), Metabolic Activation: Human, Liver, S-9, Method: Suspension/plate): inactive; negative

C=C(C)C(=O)OCC(O)COc1ccc(C(C)(C)c2ccc(OCC(O)COC(=O)C(=C)C)cc2)cc1 (configuration not stated)
mutagenic call (Test System: AMES SALMONELLA TYPHIMURIUM, Strain/Indicator: TA97A, Metabolic Activation: NONE, Method: STANDARD PLATE): inactive; negative
mutagenic call (Test System: AMES SALMONELLA TYPHIMURIUM, Strain/Indicator: TA97A, Metabolic Activation: RAT LIVER S-9, PHENOBARBITAL AND BETA-NAPHTHAFLAVONE, Method: STANDARD PLATE): inactive; negative
mutagenic call (Test System: AMES SALMONELLA TYPHIMURIUM, Strain/Indicator: TA98, Metabolic Activation: NONE, Method: STANDARD PLATE): inactive; negative
mutagenic call (Test System: AMES SALMONELLA TYPHIMURIUM, Strain/Indicator: TA98, Metabolic Activation: RAT LIVER S-9, PHENOBARBITAL AND BETA-NAPHTHAFLAVONE, Method: STANDARD PLATE): inactive; negative
mutagenic call (Test System: AMES SALMONELLA TYPHIMURIUM, Strain/Indicator: TA100, Metabolic Activation: NONE, Method: STANDARD PLATE): inactive; negative
mutagenic call (Test System: AMES SALMONELLA TYPHIMURIUM, Strain/Indicator: TA100, Metabolic Activation: RAT LIVER S-9, PHENOBARBITAL AND BETA-NAPHTHAFLAVONE, Method: STANDARD PLATE): inactive; negative
mutagenic call [1]: inactive; negative
mutagenic call (Test System: AMES SALMONELLA TYPHIMURIUM, Strain/Indicator: TA102, Metabolic Activation: RAT LIVER S-9, PHENOBARBITAL AND BETA-NAPHTHAFLAVONE, Method: STANDARD PLATE): inactive; negative
mutagenic call (Test System: CHINESE HAMSTER OVARY V-79, Strain/Indicator: V79 (HPRT)/6-THIOGUANINE, Metabolic Activation: NONE): inactive; negative

COC(=O)C(C)=Cc1ccc([N+](=O)[O-])o1
mutagenic call [2]: active; positive

COc1ccc(NC(C)=O)cc1N
mutagenic call (End Point: IN VITRO CHROMOSOMAL ABERRATIONS, Test System: CHL CELLS, Metabolic Activation: RAT, LIVER, S-9, SODIUM PHENOBARBITAL AND 5,6-BENZOFLAVONE): active; positive (structural changes); authors report equivocal results for ploidy chang
mutagenic call [2]: inactive; negative
mutagenic call (Test System: AMES SALMONELLA TYPHIMURIUM, Strain/Indicator: TA98, Metabolic Activation: RAT, LIVER, S-9, PHENOBARBITAL AND BETA-NAPHTHOFLAVONE, Method: PREINCUBATION): active; positive
mutagenic call [3]: inactive; negative
mutagenic call (Test System: AMES SALMONELLA TYPHIMURIUM, Strain/Indicator: TA100, Metabolic Activation: RAT, LIVER, S-9, PHENOBARBITAL AND BETA-NAPHTHOFLAVONE, Method: PREINCUBATION): active; positive

ClCc1c2ccccc2c(CCl)c2ccccc12
mutagenic call (Test System: AMES SALMONELLA TYPHIMURIUM, Strain/Indicator: TA1537, Metabolic Activation: NONE, Method: STANDARD PLATE): active; positive
